From patent US20200222347A1, “ANTIMICROBIALS AND METHODS OF USE THEREOF” (priority 2013, published 2020)
Entries after “also recorded” stand apart in the source; their conditions may differ. Like-named read-outs stand apart in the source and are kept apart here.

Columns and labels:
[1] = tested on: P. aeruginosa (ACTA 27853); type: in vivo; conditions: for bacterial burden of P. aeruginosa in skin tissue: 25 mM topical in water
[2] = tested on: Klebssilla pneumonia ATCC4352; assay: Paper disc test with water or propylene glycol, Example 10; type: cell-based
[3] = tested on: Pseudomonas Aeruginosa ATCC 700888 biofilm; assay: Single spray on biofilm on glass slides, time study, Example 8; conditions: for log reduction: 30% PCA spray in isopropyl alcohol, vs positive control slides
[4] = tested on: Staphylococcus aureus ATCC 33591 (MRSA) biofilm; assay: as above; conditions: for CFUs after spray: 30% PCA spray
Legionella 43662 = type: cell-based
[5] = tested on: Pseudomonas aeruginosa ATCC9027; assay: Paper disc test with water or propylene glycol, Example 10
[6] = Amount of PCA that can be dissolved; type: physicochemical
Procedure: For instance the dose used on an open rodent taped stripped skin would be conditioned by the wound's tolerance of the vehicle which in this case would be water, normal saline or like. The amount of PCA for instance that can be dissolved in water is 1.24 grams per 100 ml. In the rodent the effective dose of C-3-G and PCA were expressed in […] (mM) as 25 to 200 mM dose. Conversion factors are necessary to make comparisons to larger doses used in other applications. 78 mM (mmole/L) PCA would be 12.021 g PCA per Liter. Therefore 25 mM/L would be 3.852 grams per liter or […]. The fluid applied was […] or 0.1 milliliter. Therefore, for example, the dose of PCA that was bactericidal on Pseudomonas aeruginosa on taped stripped rodent skin was 0.00038 grams. When treating intact normal human skin as in the Loma Linda Medical School testing, it was shown the 1.24 gram in 100 ml of water would only decrease the number of colonies of Propionibacterium acnes. Note that there was no skin penetration properties to water by this method. The increase of PCA concentration was possible to as much as 17% when in composition of matter was 70% isopropyl alcohol with propylene glycol and essences of peppermint oil. This composition had skin penetration properties. However the amount of liquid applied was no more than one milliliter by cotton swab. Therefore the topical dose on intact human skin was […] (estimated). This is many times that required for traumatized taped stripped skin.
For compositions applied to the skin or a bandage the PCA crystals need to be dissolved in a liquid. […] The use of isopropyl alcohol in the combination was not an obvious choice because isopropyl alcohol alone only is marginally effective in killing bacteria. So even after using isopropyl alcohol to dissolve the PCA, the inventor discovered that even at 10% PCA in isopropyl alcohol, the composition was only marginally effective. […]

[7] = tested on: skin stripped wounds infected with Pseudomonas aeruginosa (ATCC 27853); assay: Histology of stripped, infected and treated skin wound, Example 6; conditions: 48 hours
P. acnes 6919 = assay: Kirby-Bauer disc diffusion antimicrobial susceptibility; type: cell-based; conditions: 100 mM, carrier water
[8] = tested on: E. coli, ATTC 8739 and ATCC 43895; assay: as above; type: cell-based; conditions: 100 mM, carrier water; 18-24 hours for aerobes
S. aureus 6538 = assay: as above; type: cell-based; conditions: 100 mM, carrier water; 18-24 hours for aerobes
C difficile = assay: as above; type: cell-based; conditions: 100 mM, carrier water; 48 hours for anaerobes
P. aeruginosa = assay: as above; type: cell-based, Pseudomonas aeruginosa; conditions: 100 mM, carrier water; 18-24 hours for aerobes

O=C(O)c1ccc(O)c(O)c1 [PCA, Protocatechuic acid]
bacterial burden of P. aeruginosa in skin tissue ([1]; 48 and 96 hours): reduced the bacterial burden
bacterial burden of P. aeruginosa in skin tissue ([1]; 48 hours): significantly decreased; also recorded: effective
dose that was bactericidal on Pseudomonas aeruginosa on taped stripped rodent skin ([1]; calculated from 25 mM and applied volume): 0.00038 grams
kill of Pseudomonas aeruginosa ([1]; in 48 hours, both reagents and dose (PCA 25, 50 mM; C3G 100, 200 mM)): 10,000 fold
action on stripped skin wound of a rodent ([1]; topical, various calculated doses, in 48 to 96 hours): bactericidal
inhibition of growth under the sample ([2]; PPG): I
zone of inhibition ([2]; PPG): 3 mm
inhibition of growth under the sample ([2]; Water): I
zone of inhibition ([2]; Water): 2 mm
log reduction ([3]; after 30 minutes): 3.3 log
log reduction ([3]; after 60 minutes): 2.2 log
reduction in the number colony forming units ([3]; 30% PCA spray, after 60 minutes): 99.9%
CFUs after spray ([4]; after 30 minutes, from 60 million CFUs): 3 million
CFUs after spray ([4]; after 60 minutes, from 25 million): 2 million CFUs
biofilms killed ([4]; […], 30 minutes): 90%
effectiveness against Legionella 43662 (Legionella 43662): effective
inhibition of growth under the sample ([5]; PPG): I
zone of inhibition ([5]; PPG): 4 mm
inhibition of growth under the sample ([5]; Water): I
zone of inhibition ([5]; Water): 10 mm
concentration possible in solution ([6]; 70% isopropyl alcohol with propylene glycol and essences of peppermint oil): ≤ 17%
amount that can be dissolved in water ([6]; Water): 1.24 grams per 100 ml
concentration achieved when dissolving in water ([6]; Water): ≤ 1.24%
collagen between the epidermis and dermis ([7]; 25 mM): collagen proliferation between the epidermis and dermis; also recorded: collagen layer formation
dermal layer ([7]; 25 mM): thickened
hair follicles ([7]; 25 mM): prominent with multiple cellular lining
inflammation ([7]; 25 mM): abundant inflammation
surface cellularity ([7]; 25 mM): abundant and multiple cell layers
vascularity ([7]; 25 mM): moderate vascularity
dermal layer ([7]; 50 mM): thicker
hair follicles ([7]; 50 mM): double layer of cells
inflammation ([7]; 50 mM): increased in the dermis and below the muscle layer
surface cellularity ([7]; 50 mM): covered with multiple layers of cells
vascularity ([7]; 50 mM): increased vascularity
tissue repair / healing response by histology ([7]; PCA 25 and 50 mM, C3G 100 and 200 mM): stimulated tissue repair
effectiveness against P. acnes (growth inhibition) (P. acnes 6919): effective; also recorded: able to kill; also recorded: bactericidal
effectiveness against E. coli [8]: effective
effectiveness against S. aureus 6538 (S. aureus 6538): effective
effectiveness against C. difficile (growth inhibition) (C difficile): effective
effectiveness against P. aeruginosa (P. aeruginosa): effective; also recorded: some effectiveness
